Data set [1] in a line: pH-dependent homocysteine sensing ability (fluorescence at 550 nm). Conditions: 10 μM probe, 10 μM homocysteine, stirred 10 minutes, excitation 460 nm, emission 550 nm. As for the experimental part:
The present inventors identified the homocysteine sensing ability of Compound 1 (NPO-pyr) according to acidity (pH).
Specifically, in order to observe the sensitivity of acidity (pH) to homocysteine based on the fluorescence turning-on of Compound 1, the sensitivity was identified under various acidity conditions (pH 3 to 9) while fixing the concentrations of Compound 1 (10 μM) and homocysteine (10 μM). In other words, 10 µM of homocysteine was treated under the conditions of pH 3, 5, 7, 7.4, and 9, respectively, and 10 μM of Compound 1 was stirred for 10 minutes, and then the fluorescence intensity was measured. In this connection, an excitation wavelength of 460 nm was used, and a fluorescence emission wavelength of 550 nm was measured. The fluorescence intensity is shown in the bar graph in FIG. 4.

A short description of data set [2]: Homocysteine sensing ability in mouse feces. Conditions: extract of mouse feces, probe 10 μM, 10 minutes at 37° C., excitation 460 nm. As to the method: (§1) In order to identify the detection ability of Compound 1 (NPO-pyr) for homocysteine present in mouse plasma and feces, plasma (20 μL) isolated from blood and an extract (9.5 mg) extracted from mouse feces were dissolved in an aqueous solution (DI. H2O) (5 mL), treated with homocysteine at various concentrations (1 to 160 ng/μL), and then treated with Compound 1 (10 μM). After stirring for 10 minutes in a stirrer at 37° C. for reaction, the fluorescence spectrum was measured (excitation wavelength: 460 nm). Compound 1 was dissolved in DMSO solution at […] and used, and the amount of DMSO was ensured to be the same in each container (less than 1%) under the final solvent conditions used.

Data set [3] in a line: Homocysteine reaction time and selectivity among amino thiols (fluorescence over 0 to 30 minutes). The conditions noted are these: pH 7.4 PBS buffer. As for the experimental part:
In order to identify whether Compound 1 (NPO-pyr) would react with various types of aminothiols including homocysteine under neutral conditions (pH 7.4), Compound 1 and aminothiol were added to an aqueous solution of neutral conditions (pH 7.4, PBS buffer) and the fluorescence emission graph was measured.
Specifically, Compound 1 (10 μM) was reacted with homocysteine (DL-homocysteine, 10 μM), cysteine (10 μM), glutathione (L-glutathione, 10 μM), and hydrogen sulfide (10 μM) in an aqueous solution (pH 7.4, PBS buffer), and the fluorescence value was measured (excitation wavelength: 460 nm). Amino thiols including homocysteine were purchased from Sigma, TCI, and a fluorophotometer (SHIMADZU CORP. RF-6000, Japan) was used for fluorescence spectra analysis. In this connection, the cell that puts the compound into each device was a standard quartz cell with a thickness of 1 cm (internal volume=[…]).

Data set [4] is described as follows: Selectivity toward biomolecules, thiols and metal ions (fluorescence at 550 nm). Conditions: pH 7.4 PBS buffer, excitation 460 nm, emission 550 nm. As to the method: An aqueous solution (pH 7.4, PBS buffer) was used, and metal ions were purchased from Aldrich, Oriental Chemicals, Samchun chemicals, and Duksan chemicals. Compound 1 was dissolved in dimethyl sulfoxide (DMSO) at 10 mM and used, and the amount of dimethyl sulfoxide was controlled to be the same in each solvent (less than 1%) under the final solvent conditions used. The concentration of Compound 1 was 10 μM, and the biomolecule was treated identically at 10 μM. The excitation wavelength was 460 nm, and the fluorescence value at a fluorescence wavelength of 550 nm was measured using a fluorescence spectrophotometer, and is shown in FIG. 3.
The types of ions indicated on the horizontal axis in the graph of FIG. 3 are as follows: • (A) Probe 1 with DL-Homocysteine; • (B) Probe 1 with L-Cysteine; • (C) Probe 1 with L-Glutathion; • (D) Probe 1 with Hydrogen sulfide; • (E) Probe 1 with Bovine Serum Albumin; • (F) Probe 1 with Holmium (III) chloride; • (G) Probe 1 with Iron (II) chloride; • (H) Probe 1 with Iron (III) chloride; • (I) Probe 1 with Magnesium chloride; • (J) Probe 1 with Nikel (II) chloride; • (K) Probe 1 with Phosphorus pentachloride; • (L) Probe 1 with Gold trichloride; • (M) Probe 1 with Palladium (II) chloride; • (N) Probe 1 with potassium chloride; • (O) Probe 1 with Silver nitrate; • (P) Probe 1 with Sodium chloride; and • (Q) Probe 1 with Cobalt chloride.

Data set [5] is described as follows: Fluorescence intensity in plasma of glioblastoma mice versus normal mice. Details: species or system mouse. Conditions: plasma 7 and 14 days after the induction of glioblastoma, excitation 460 nm, emission 550 nm.
Procedure: First, in order to prepare the experimental group, a glioblastoma mouse model was created by administering a solution containing 5.0×10^5 cells in 5 μL of cell culture media without fetal bovine serum (FBS) using LUC-U87MG cells (glioblastoma cells) to the mouse brain (thalamus).
In order to identify the reaction between Compound 1 and mouse plasma, a fluorescence measuring device (Spectro-fluorophotometer: SHIMADZU CORP. RF-6000, Japan) was used. The glass cuvette used for fluorescence measurements was a standard quartz cell with a thickness of 1 cm on all sides (internal volume=0.1 cm, Hellma Analytics, Jena, Germany).
In addition, in order to identify the reaction between Compound 1 and mouse plasma, blood was collected from the control group and the experimental group, the plasma was isolated, reacted with Compound 1, and then the fluorescence intensity was measured at an emission wavelength of 550 nm using a fluorescence measuring device (Spectro-fluorophotometer; SHIMADZU CORP. RF-6000, Japan) (excitation wavelength: 460 nm). The glass cuvette used for fluorescence measurements was a standard quartz cell with a thickness of 1 cm on all sides (internal volume=0.1 cm, Hellma Analytics, Jena, Germany).
Data set [6] can be described thus: Stability in aqueous solution. Type of data set: physicochemical. The conditions noted are these: pH 7.4, PBS buffer.
Data set [7] can be described thus: Homocysteine sensing ability in mouse plasma (limit of detection). The conditions noted are these: probe 10 μM, 10 minutes at 37° C., excitation 460 nm. As for the experimental part: as §1

As for `O=[N+]([O-])c1ccc(Oc2ccncc2)c2nonc12` [Compound 1, 4-nitro-7-(pyridine-4-yloxy)benzo[c] [1,2,5] oxadiazole], in data set [1], the “sensitivity of the reaction with homocysteine at other pHs (3, 5, 9)” value is “relatively weak”; the “sensitivity of the reaction with homocysteine at pH 7 and 7.4” value is “most sensitive”. The “ability to sense homocysteine in mouse feces” value in data set [2] is “potential to sense homocysteine”. Also, the “time to increase in fluorescence after the addition of homocysteine (reaction time)” value in data set [3] (10 μM probe, 10 μM homocysteine, excitation 460 nm) was not above 5 min. Also, the “fluorescence emission with other amino thiols except homocysteine” value in data set [3] (cysteine, glutathione, hydrogen sulfide, each 10 μM) is “no fluorescence emission was observed”. Further, the “fluorescence intensity with homocysteine (A)” value in data set [4] (10 μM probe, 10 μM DL-homocysteine) is “strong fluorescence intensity value”. Further, in data set [4] (10 μM probe, 10 μM analyte), the “fluorescence turn-on under amino thiol, metal ion and biomolecule conditions other than homocysteine” value was “little fluorescence turn-on phenomenon”. Further, in data set [4] (10 μM), the “fluorescence intensity, probe alone (Only NPO-pyr)” value is listed as “almost no fluorescence intensity value”. The “fluorescence intensity in plasma of the experimental group (glioblastoma mice) compared to the control group (normal mice)” value in data set [5] is recorded as “stronger fluorescence intensity”. The “stability in an aqueous solution” value in data set [6] is “showed stability”. Also, in data set [7], the “LOD value for homocysteine” value is 0.176 ppm. The LOD value for homocysteine in data set [7] (printed conversion of the ppm value) stood at 1.3 µM.

Source of the values: patent US20250224399A1, “METHOD FOR DETECTING HOMOCYSTEINE IN PLASMA AND METHOD FOR DIAGNOSING GLIOBLASTOMA BY USING NOVEL FLUORESCENT PROBE” (UNIVERSITY-INDUSTRY COOPERATION GROUP OF KYUNG HEE …, priority 2022, published 2025).
